Our source for the GI50 and IC50 values is patent US11878973B2, “Bicyclic compounds and their uses” (NOVARTIS AG, priority 2021, dated 2024).

Like-named read-outs stand apart in the source and are kept apart here.

In experiment [1] the test system is DLD1-WRN-KO cells. In words: Proliferation assay DLD1-WRN-KO (CellTiterGlo, 96 hours; off-target effects). The note with it: Homo sapiens.
The test system of experiment [2] is SW48 cells. In words: Proliferation assay SW48 (CellTiterGlo, 96 hours). The note with it: Homo sapiens.
Experimental: The WRN-knockdown insensitive colon carcinoma cell line DLD-1 (RRID: CVCL_0248) was obtained from the Korean Cell Line Bank (KCLB), and used to generate a derivative in which the endogenous WRN gene copies were knocked out by CRISPR-mediated editing using standard CRISPR methods. The resulting cell line, DLD1-WRN—KO, was used to assess potential off-target compound effects.
All cells were maintained at 37° C. in a humidified 5% CO2 incubator.
For data analysis, the assay background signal that was determined in wells containing medium, but no cells, was subtracted from all other data points prior to further calculations. The extent of growth inhibition and potential cell kill was assessed by comparing the ATP levels (measured using CellTiterGlo, Promega) in compound-treated cells with those present at the time of compound addition. […] 100%, 0% and −100% signify absence of growth inhibition, growth stasis, and complete cell kill, respectively. Compound concentrations leading to half-maximal growth inhibition (G150) and residual cell viability at the highest tested compound concentration (Data (cmax), expressed in percent) were routinely calculated. Data analysis can also be carried out using commercially available software designed to derive IC50 values using 4-parameter fits (e.g. GraphPad Prism, XL fit). The reported GI50 values are the geometrical means of at least 2 independent replicates.
In experiment [3] the target is WRN helicase (Homo sapiens (Human), UniProt Q14191). The experiment is described as follows: In vitro enzymatic activity assay on WRN helicase (DNA dependent ATPase assay, ADP-Glo). The experiment is classed as biochemical. The gist of the method: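 The WRN helicase core (aa N517-P1238), 10 nM, hydrolysed 300 µM ATP in the presence of 0.2 nM FLAP26 DNA (Tris pH 7.5, 2 mM MgCl2, 50 mM NaCl) for 30 min at room temperature. ADP formed was quantified by ADP-Glo luminescence.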
Sequence of WRN helicase (Q14191 517-1238): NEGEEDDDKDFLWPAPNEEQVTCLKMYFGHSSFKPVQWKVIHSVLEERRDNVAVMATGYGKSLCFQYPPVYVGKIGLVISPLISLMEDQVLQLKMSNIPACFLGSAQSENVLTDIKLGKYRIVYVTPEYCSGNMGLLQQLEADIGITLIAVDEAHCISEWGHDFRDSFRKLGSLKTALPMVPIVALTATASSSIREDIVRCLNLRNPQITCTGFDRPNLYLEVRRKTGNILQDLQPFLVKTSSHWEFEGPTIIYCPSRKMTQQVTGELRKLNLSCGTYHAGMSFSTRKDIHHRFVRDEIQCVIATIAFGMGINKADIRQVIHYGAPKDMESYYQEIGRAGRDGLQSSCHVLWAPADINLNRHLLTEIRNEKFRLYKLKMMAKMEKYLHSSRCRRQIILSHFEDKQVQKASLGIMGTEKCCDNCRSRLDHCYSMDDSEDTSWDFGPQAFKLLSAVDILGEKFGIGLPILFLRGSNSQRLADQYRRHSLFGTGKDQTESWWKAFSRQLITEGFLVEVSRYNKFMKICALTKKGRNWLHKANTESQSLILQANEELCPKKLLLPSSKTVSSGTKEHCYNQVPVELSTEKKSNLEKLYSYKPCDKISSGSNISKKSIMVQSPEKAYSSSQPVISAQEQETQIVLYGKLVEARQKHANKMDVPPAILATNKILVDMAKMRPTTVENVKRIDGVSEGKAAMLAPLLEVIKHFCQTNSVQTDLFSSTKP

The mark [4] stands for this setting: read-out: Proliferation Assay DLD1-WRN-KO (GI50).
The mark [5] stands for this setting: SW48, read-out: Proliferation Assay SW48 (GI50).
Setting [6] is: geometric means of at least 2 determinations, read-out: WRN ATPase Activity (IC50).

`CCc1c(N2CCN(C(=O)c3nccc(Cl)c3O)CC2)c(=O)n2nc(N3CCOCC3)nc2n1CC(=O)Nc1cc(F)c(C(F)(F)F)cc1C` [Example 6, 2-(6-(4-(4-chloro-3-hydroxypicolinoyl)piperazin-1-yl)-5-ethyl-2-morpholino-7-oxo-[1,2,4]triazolo[1,5-a]pyrimidin-4(7H)-yl)-N-(5-fluoro-2-methyl-4-(trifluoromethyl)phenyl)acetamide]: the GI50 is greater than 10000 nM in experiment [1] (setting [4]) and 270 nM in experiment [2] (setting [5]). Further, the IC50 in experiment [3] (setting [6]) stood at 70 nM.

On to `CCc1c(N2CCN(C(=O)c3nccc(OC(F)(F)F)c3O)CC2)c(=O)n2nc(C3=CCOCC3)nc2n1CC(=O)Nc1ccc(C(F)(F)F)cc1C` [Example 67, 2-(2-(3,6-dihydro-2H-pyran-4-yl)-5-ethyl-6-(4-(3-hydroxy-4-(trifluoromethoxy)picolinoyl)piperazin-1-yl)-7-oxo-[1,2,4]triazolo[1,5-a]pyrimidin-4(7H)-yl)-N-(2-methyl-4-(trifluoromethyl)phenyl)acetamide], for which the GI50 in experiment [1] (setting [4]) is greater than 10000 nM; in experiment [2] (setting [5]), 190 nM. The IC50 in experiment [3] (setting [6]) was found to be 150 nM.

In the case of `CCc1c(N2CCN(C(=O)c3ncccc3O)CC2)c(=O)n2nc(N3CCOCC3)nc2n1CC(=O)Nc1ccc(C(F)(F)F)cc1F` [Example 11, 2-(5-ethyl-6-(4-(3-hydroxypicolinoyl)piperazin-1-yl)-2-morpholino-7-oxo-[1,2,4]triazolo[1,5-a]pyrimidin-4(7H)-yl)-N-(2-fluoro-4-(trifluoromethyl)phenyl)acetamide], the GI50 was greater than 10000 nM in experiment [1] (setting [4]) and 380 nM in experiment [2] (setting [5]). Also, the IC50 in experiment [3] (setting [6]) was determined as 110 nM.

Turning to `CCc1c(N2CCN(C(=O)c3ncnc(C)c3O)CC2)c(=O)n2nc(C3=CCOCC3)nc2n1CC(=O)Nc1ccc(C(F)(F)F)cc1C` [Example 57, 2-(2-(3,6-dihydro-2H-pyran-4-yl)-5-ethyl-6-(4-(5-hydroxy-6-methylpyrimidine-4-carbonyl)piperazin-1-yl)-7-oxo-[1,2,4]triazolo[1,5-a]pyrimidin-4(7H)-yl)-N-(2-methyl-4-(trifluoromethyl)phenyl)acetamide], the GI50 in experiment [1] (setting [4]) was greater than 10000 nM; in experiment [2] (setting [5]), 100 nM. For the same molecule, in experiment [3] (setting [6]), the concentration for half-maximal inhibition (IC50) was 100 nM.

For the molecule `CCc1c(N2CCN(C(=O)c3ncccc3O)CC2)c(=O)n2nc(N3CCC[C@H](F)C3)nc2n1CC(=O)Nc1ccc(C(F)(F)F)cc1C` [Example 14b, (S)-2-(5-ethyl-2-(3-fluoropiperidin-1-yl)-6-(4-(3-hydroxypicolinoyl)piperazin-1-yl)-7-oxo-[1,2,4]triazolo[1,5-a]pyrimidin-4(7H)-yl)-N-(2-methyl-4-(trifluoromethyl)phenyl)acetamide], the GI50 in experiment [1] (setting [4]) was greater than 10000 nM; in experiment [2] (setting [5]), 260 nM. In experiment [3] (setting [6]), the IC50 came to 90 nM.

On to `CCc1c(N2CCN(C(=O)c3ncccc3O)CC2)c(=O)n2nc(C3=CCC(F)CN3)nc2n1CC(=O)Nc1ccc(C(F)(F)F)cc1C` (racemic) [Example 111, rac-2-(5-ethyl-2-(5-fluoro-1,4,5,6-tetrahydropyridin-2-yl)-6-(4-(3-hydroxypicolinoyl)piperazin-1-yl)-7-oxo-[1,2,4]triazolo[1,5-a]pyrimidin-4(7H)-yl)-N-(2-methyl-4-(trifluoromethyl)phenyl)acetamide], for which the GI50 in experiment [1] (setting [4]) is greater than 10000 nM; in experiment [2] (setting [5]) it was 1120 nM. In addition, in experiment [3] (setting [6]), the IC50 came out at 330 nM.

Take `CCc1c(N2CCN(C(=O)c3ncnc(C)c3O)CC2)c(=O)n2nc(C3=CCOCC3)nc2n1CC(=O)Nc1ccc(C(F)(F)F)cc1Br` [Example 108, N-(2-bromo-4-(trifluoromethyl)phenyl)-2-(2-(3,6-dihydro-2H-pyran-4-yl)-5-ethyl-6-(4-(5-hydroxy-6-methylpyrimidine-4-carbonyl)piperazin-1-yl)-7-oxo-[1,2,4]triazolo[1,5-a]pyrimidin-4(7H)-yl)acetamide]: the GI50 in experiment [1] (setting [4]) is greater than 10000 nM; in experiment [2] (setting [5]) it was 90 nM. For the same molecule, the concentration for half-maximal inhibition (IC50) in experiment [3] (setting [6]) stood at 80 nM.

Consider `CCc1c(N2CCN(C(=O)c3ncccc3O)CC2)c(=O)n2nc(C3=CCOCC3)nc2n1CC(=O)Nc1cc(F)c(C(F)(F)F)nc1Cl` [Example 99, N-(2-chloro-5-fluoro-6-(trifluoromethyl)pyridin-3-yl)-2-(2-(3,6-dihydro-2H-pyran-4-yl)-5-ethyl-6-(4-(3-hydroxypicolinoyl)piperazin-1-yl)-7-oxo-[1,2,4]triazolo[1,5-a]pyrimidin-4(7H)-yl)acetamide], for which the GI50 in experiment [1] (setting [4]) was greater than 10000 nM; in experiment [2] (setting [5]) it was 280 nM. Moreover, the IC50 in experiment [3] (setting [6]) worked out at 180 nM.

For `CCc1c(N2CCN(C(=O)c3ncccc3O)CC2)c(=O)n2nc(C3=CCCCO3)nc2n1CC(=O)Nc1ccc(C(F)(F)F)cc1` [Example 84, 2-(2-(3,4-dihydro-2H-pyran-6-yl)-5-ethyl-6-(4-(3-hydroxypicolinoyl)piperazin-1-yl)-7-oxo-[1,2,4]triazolo[1,5-a]pyrimidin-4(7H)-yl)-N-(4-(trifluoromethyl)phenyl)acetamide], the GI50 is greater than 10000 nM in experiment [1] (setting [4]) and 130 nM in experiment [2] (setting [5]). In addition, in experiment [3] (setting [6]), the half-inhibitory concentration (IC50) worked out at 50 nM.

On to `CCc1c(N2CCN(C(=O)c3nc(C)cc(F)c3O)CC2)c(=O)n2nc(C3=CCOCC3)nc2n1CC(=O)Nc1ccc(C(F)(F)F)nc1Cl` [Example 49, N-(2-chloro-6-(trifluoromethyl)pyridin-3-yl)-2-(2-(3,6-dihydro-2H-pyran-4-yl)-5-ethyl-6-(4-(4-fluoro-3-hydroxy-6-methylpicolinoyl)piperazin-1-yl)-7-oxo-[1,2,4]triazolo[1,5-a]pyrimidin-4(7H)-yl)acetamide], for which the GI50 in experiment [1] (setting [4]) is greater than 10000 nM; in experiment [2] (setting [5]) it was 120 nM. For the same molecule, the concentration for half-maximal inhibition (IC50) in experiment [3] (setting [6]) was determined as 120 nM.

Turning to `CCc1c(N2CCN(C(=O)c3nccc(OC(F)(F)F)c3O)CC2)c(=O)n2nc(C3=CCOCC3)nc2n1CC(=O)Nc1ccc(C(F)(F)F)cc1Cl` [Example 98, N-(2-chloro-4-(trifluoromethyl)phenyl)-2-(2-(3,6-dihydro-2H-pyran-4-yl)-5-ethyl-6-(4-(3-hydroxy-4-(trifluoromethoxy)picolinoyl)piperazin-1-yl)-7-oxo-[1,2,4]triazolo[1,5-a]pyrimidin-4(7H)-yl)acetamide], the GI50 was greater than 10000 nM in experiment [1] (setting [4]) and 140 nM in experiment [2] (setting [5]). In addition, in experiment [3] (setting [6]), the IC50 came out at 40 nM.

As for `CCc1c(N2CCN(C(=O)c3ncccc3O)CC2)c(=O)n2nc(C3=CCNCC3)nc2n1CC(=O)Nc1ccc(C(F)(F)F)cc1C` [Example 112, 2-(5-ethyl-6-(4-(3-hydroxypicolinoyl)piperazin-1-yl)-7-oxo-2-(1,2,3,6-tetrahydropyridin-4-yl)-[1,2,4]triazolo[1,5-a]pyrimidin-4(7H)-yl)-N-(2-methyl-4-(trifluoromethyl)phenyl)acetamide], the GI50 in experiment [1] (setting [4]) is greater than 10000 nM; in experiment [2] (setting [5]), 7940 nM. Moreover, the half-inhibitory concentration (IC50) in experiment [3] (setting [6]) is 510 nM.

With `CCc1c(N2CCN(C(=O)c3nccc(Cl)c3O)CC2)c(=O)n2nc(N3CCOCC3)nc2n1CC(=O)Nc1ccc(C(F)(F)F)cc1Cl` [Example 1, 2-(6-(4-(4-chloro-3-hydroxypicolinoyl)piperazin-1-yl)-5-ethyl-2-morpholino-7-oxo-[1,2,4]triazolo[1,5-a]pyrimidin-4(7H)-yl)-N-(2-chloro-4-(trifluoromethyl)phenyl)acetamide], the GI50 in experiment [1] (DLD-1, read-out: proliferation GI50 in DLD1 WRN-KO) is greater than 10000 nM; in experiment [1] (setting [4]), greater than 10000 nM; in experiment [2] (setting [5]), 50 nM; in experiment [2] (SW48, read-out: proliferation GI50 in SW48, as stated in text), 50 nM. In addition, the IC50 in experiment [3] (setting [6]) and in experiment [3] (read-out: WRN ATPase inhibition (IC50)) was 50 nM throughout.

For the molecule `CCc1c(N2C[C@@H](C)N(C(=O)c3ncnc(C)c3O)C[C@@H]2C)c(=O)n2nc(C3=CCOCC3)nc2n1CC(=O)Nc1ccc(C(F)(F)F)cc1Cl` [Example 118, N-(2-chloro-4-(trifluoromethyl)phenyl)-2-(2-(3,6-dihydro-2H-pyran-4-yl)-5-ethyl-6-((2S,5R)-4-(5-hydroxy-6-methylpyrimidine-4-carbonyl)-2,5-dimethylpiperazin-1-yl)-7-oxo-[1,2,4]triazolo[1,5-a]pyrimidin-4(7H)-yl)acetamide], the GI50 in experiment [1] (setting [4]) is greater than 10000 nM; in experiment [2] (setting [5]), 450 nM. For the same molecule, in experiment [3] (setting [6]), the IC50 stood at 90 nM.

With `Cc1cc(C(F)(F)F)ccc1NC(=O)Cn1c(CCO)c(N2CCN(C(=O)c3ncccc3O)CC2)c(=O)n2nc(C3=CCOCC3)nc12` [Example 135, 2-(2-(3,6-dihydro-2H-pyran-4-yl)-5-(2-hydroxyethyl)-6-(4-(3-hydroxypicolinoyl)piperazin-1-yl)-7-oxo-[1,2,4]triazolo[1,5-a]pyrimidin-4(7H)-yl)-N-(2-methyl-4-(trifluoromethyl)phenyl)acetamide], the values for the GI50 in experiment [1] (setting [4]) and in experiment [2] (setting [5]) were greater than 10000 nM and 280 nM, respectively. In addition, the IC50 in experiment [3] (setting [6]) was 130 nM.

Regarding `CCc1c(N2CCN(C(=O)c3ncccc3O)CC2)c(=O)n2nc(C3=CCOCC3)nc2n1CC(=O)Nc1cc(Cl)c(C(F)(F)F)cc1C` [Example 69, N-(5-chloro-2-methyl-4-(trifluoromethyl)phenyl)-2-(2-(3,6-dihydro-2H-pyran-4-yl)-5-ethyl-6-(4-(3-hydroxypicolinoyl)piperazin-1-yl)-7-oxo-[1,2,4]triazolo[1,5-a]pyrimidin-4(7H)-yl)acetamide], the figures for the GI50 in experiment [1] (setting [4]) and in experiment [2] (setting [5]) were 6300 nM and 30 nM, respectively. Moreover, the IC50 in experiment [3] (setting [6]) stood at 40 nM.

`CCc1c(N2CCN(C(=O)c3ncnc(C)c3O)CC2)c(=O)n2nc(C3=CCOCC3)nc2n1CC(=O)Nc1ccc(S(F)(F)(F)(F)F)cc1Cl` [Example 51, N-(2-chloro-4-(pentafluorosulfanyl)phenyl)-2-(2-(3,6-dihydro-2H-pyran-4-yl)-5-ethyl-6-(4-(5-hydroxy-6-methylpyrimidine-4-carbonyl)piperazin-1-yl)-7-oxo-[1,2,4]triazolo[1,5-a]pyrimidin-4(7H)-yl)acetamide]: the GI50 was greater than 10000 nM in experiment [1] (setting [4]) and 30 nM in experiment [2] (setting [5]). Further, the IC50 in experiment [3] (setting [6]) came to 40 nM.
